In patent publication US4276412A, “3-Trehalosamine compounds” (The Upjohn Company, priority 1979, dated 1981):
Converted amounts (≈) assume the structure as drawn.

Legend:
[1] = system: K. pneumoniae UC 58; assay: Minimal Inhibitory Concentration; type: cell-based; conditions: Klebsiella pneumoniae, UC58
[2] = system: S. typhi UC 215; assay: Minimal Inhibitory Concentration; type: cell-based; conditions: Salmonella enterica, read-out: Minimal Inhibitory Concentration
[3] = Solubilities; type: physicochemical
[4] = system: S. pyogenes UC 152; assay: Minimal Inhibitory Concentration; type: cell-based; conditions: Streptococcus pyogenes, UC152
[5] = system: B. subtilis (UC 564); assay: biounit assay against B. subtilis (paper disc, zone of growth inhibition); type: cell-based; conditions: IR-45 (OH--) column fractions after lyophilization; 12.7 mm disc, 0.08 ml, 32° C., ca 18 hours
Protocol: The active fractions during the recovery and purification process are determined by assay against the microorganism Bacillus subtilis. The assay procedure is as follows:
5.0 mls culture are centrifuged (4000×g, 10'). Serial dilutions of the supernatant solution are performed in 0.1 M phosphate buffer, pH 7.7. […] The trays are incubated at 32° C. for ca 18 hours and the zone of growth inhibition recorded.
The designation BU, used herein, means biounit. A biounit is defined as the concentration of the antibiotic which gives a 20 mm zone of inhibition.

[6] = system: Ps. aeruginosa UC 95; assay: Minimal Inhibitory Concentration; type: cell-based; conditions: Pseudomonas aeruginosa, UC95
[7] = system: Staphylococcus aureus; assay: antibacterial activity (in words); type: cell-based
[8] = system: various Gram-positive and Gram-negative bacteria; assay: antibacterial activity (in words); type: cell-based; conditions: disc assay
Protocol: (§1) The testing was done on a standard microbiological disc assay system using 0.1 ml per 12.7 mm disc.

[9] = system: Staphylococcus aureus UC 3665; assay: standard microbiological disc assay, zone size; type: cell-based; conditions: 0.1 ml per 12.7 mm disc
Protocol: as §1

[10] = system: Klebsiella pneumoniae UC 57; assay: standard microbiological disc assay, zone size; type: cell-based; conditions: 0.1 ml per 12.7 mm disc
Protocol: as §1

[11] = system: Escherichia coli UC 51; assay: standard microbiological disc assay, zone size; type: cell-based; conditions: 0.1 ml per 12.7 mm disc
Protocol: as §1

[12] = system: Staphylococcus aureus UC 80; assay: standard microbiological disc assay, zone size; type: cell-based; conditions: 0.1 ml per 12.7 mm disc
Protocol: as §1

[13] = system: Bacillus subtilis UC 564; assay: standard microbiological disc assay, zone size; type: cell-based; conditions: 0.1 ml per 12.7 mm disc
Protocol: as §1

[14] = system: Sarcina lutea UC 130; assay: standard microbiological disc assay, zone size; type: cell-based; conditions: 0.1 ml per 12.7 mm disc
Protocol: as §1

[15] = system: Bacillus subtilis UC 6033; assay: standard microbiological disc assay, zone size; type: cell-based; conditions: 0.1 ml per 12.7 mm disc
Protocol: as §1

[16] = system: Proteus vulgaris UC 93; assay: standard microbiological disc assay, zone size; type: cell-based; conditions: 0.1 ml per 12.7 mm disc
Protocol: as §1

[17] = system: Pseudomonas aeruginosa UC 95; assay: standard microbiological disc assay, zone size; type: cell-based; conditions: 0.1 ml per 12.7 mm disc
Protocol: as §1

[18] = system: P. mirabilis UC 6671; assay: Minimal Inhibitory Concentration; type: cell-based; conditions: Proteus mirabilis, UC6671
[19] = system: P. vulgaris UC 93; assay: Minimal Inhibitory Concentration; type: cell-based; conditions: Proteus vulgaris, UC93
[20] = system: D. pneumoniae UC 41; assay: Minimal Inhibitory Concentration; type: cell-based; conditions: Streptococcus pneumoniae, UC41
[21] = system: S. faecalis UC 694; assay: Minimal Inhibitory Concentration; type: cell-based; conditions: Enterococcus faecalis, UC694
[22] = system: S. marcescens UC 131; assay: Minimal Inhibitory Concentration; type: cell-based; conditions: Serratia marcescens, UC131
[23] = system: B. subtilis; assay: antibacterial activity (in words); type: cell-based
[24] = system: S. flexneri UC 143; assay: Minimal Inhibitory Concentration; type: cell-based; conditions: Shigella flexneri, UC143
[25] = system: S. schottmuelleri UC 126; assay: Minimal Inhibitory Concentration; type: cell-based
[26] = system: E. coli UC 45; assay: Minimal Inhibitory Concentration; type: cell-based; conditions: Escherichia coli, UC45
[27] = system: S. aureus UC 76; assay: Minimal Inhibitory Concentration; type: cell-based; conditions: Staphylococcus aureus, UC76
[28] = stability at various pH; type: physicochemical; conditions: any pH from about 1 to about 11

## N[C@@H]1[C@@H](O)[C@@H](O[C@H]2O[C@H](CO)[C@@H](O)[C@H](O)[C@H]2O)O[C@H](CO)[C@H]1O [3-Trehalosamine]
[1]
  MIC: > 1000 µg/mL
[2]
  MIC: > 1000 µg/mL
[3]; any pH from about 1 to about 11
  solubility: soluble
[3]; water, dilute acid, dilute base
  solubility: soluble in water, dilute acid and dilute base
[4]
  MIC: 1000 µg/mL (≈ 2930 µM)
[5]
  potency vs Bs (biounits; BU = concentration giving a 20 mm zone of inhibition): 80 BU/mg
[6]
  MIC: > 1000 µg/mL
[7]
  antibacterial activity: active against Staphylococcus aureus
[8]
  antibacterial activity: active against various Gram-positive and Gram-negative bacteria
[9]
  Zone Size: 30 mm
[10]
  Zone Size: 0 mm
[11]
  Zone Size: 0 mm
[12]
  Zone Size: 32 mm
[13]
  Zone Size: 36.5 mm
[14]
  Zone Size: 0 mm
[15]
  Zone Size: 24 mm
[16]
  Zone Size: 0 mm
[17]
  Zone Size: 0 mm
[18]
  MIC: > 1000 µg/mL
[19]
  MIC: > 1000 µg/mL
[20]
  MIC: 62.5 µg/mL (≈ 183 µM)
[21]
  MIC: > 1000 µg/mL
[22]
  MIC: > 1000 µg/mL
[23]
  antibacterial activity: active against B. subtilis
[24]
  MIC: > 1000 µg/mL
[25]
  MIC: > 1000 µg/mL
[26]
  MIC: > 1000 µg/mL
[27]
  MIC: > 1000 µg/mL
[28]
  stability: stable
